The results in this text go back to ChEMBL document CHEMBL4130419, “Novel chemotypes targeting tubulin at the colchicine binding site and unbiasing P-glycoprotein” (Eur J Med Chem, 2017).

SMILES strings stand for the structures.

Data set [1] in a line: Efflux ratio of apparent permeability from basolateral to apical over apical to basolateral side in MDCK2-MDR1 cells at 75 uM after 2 hrs by UV-visible spectroscopy. Conditions: dog, MDCK-MDR1. Format: ADME, cell-based, Canis lupus familiaris.
Data set [2] in a line: Apparent permeability from apical to basolateral side in MDCK2-MDR1 cells at 75 uM after 2 hrs UV-visible spectroscopy. Format: ADME, cell-based, Canis lupus familiaris. As to conditions: dog, MDCK-MDR1.
The nature of data set [3]: Apparent permeability from basolateral to apical side in MDCK2-MDR1 cells at 75 uM after 2 hrs UV-visible spectroscopy. As to conditions: dog, MDCK-MDR1. Format: ADME, cell-based, Canis lupus familiaris.
The species entered for data set [4] is Sus scrofa. Briefly: Inhibition of tubulin polymerization in porcine brain assessed as disruption of microtubule organization after 1 hr by fluorescence polarization assay.
The subject of data set [5] is HepG2. Put plainly: Antiproliferative activity against human HepG2 cells after 72 hrs by MTT assay. Format: functional, cell-based. Conditions: HepG2, 72 h. On the technique in general: Tetrazolium dyes change colour on reduction, which living cells bring about.
In data set [6] the test system is SH-SY5Y. Briefly: Antiproliferative activity against human SH-SY5Y cells after 72 hrs by MTT assay. The data set is classed as functional, cell-based.
The subject of data set [7] is HeLa. Put plainly: Antiproliferative activity against human HeLa cells after 72 hrs by MTT assay. The data set is classed as functional, cell-based.
The subject of data set [8] is MCF7. Briefly: Antiproliferative activity against human MCF7 cells after 72 hrs by MTT assay. The data set is classed as functional, cell-based. As to conditions: MCF7, 72 h.

The term efflux ratio denotes a quotient of directional permeabilities that is used to spot active efflux. The Papp A→B is how fast a substance crosses the layer from the apical side. As a reminder, the Papp B→A is the apparent permeability from the basolateral to the apical side of a cell layer. What is called IC50 is the concentration that inhibits the measured activity by half. The low end stands for greater potency, the high end for weaker potency. Take `CCOC(=O)c1c(C)[nH]c(C)c1C(=O)CSC1=Nc2ccccc2C2CC=NN12` (stereo unspecified): the efflux ratio at 2 h, 75 µM in data set [1] came to 0.62. The Papp A→B at 2 h, 75 µM in data set [2] worked out at 76 ×10⁻⁶ cm/s. Also, in data set [3], the Papp B→A at 2 h, 75 µM came to 47 ×10⁻⁶ cm/s. Further, the inhibition result in data set [4] is “Dose-dependent effect”. The IC50 came out at 14.1 µM in data set [5], 3.7 µM in data set [6], 63.2 µM in data set [7] and 32 µM in data set [8].

Turning to `NC(=O)C1CCN(c2nc(CSc3ccccc3)nc3sc4c(c23)CCCC4)CC1`, the efflux ratio at 2 h, 75 µM in data set [1] is 1.82. Moreover, in data set [2], the Papp A→B at 2 h, 75 µM worked out at 45 ×10⁻⁶ cm/s. In addition, in data set [3], the Papp B→A at 2 h, 75 µM was 82 ×10⁻⁶ cm/s. Besides, the inhibition entry in data set [4] is “Dose-dependent effect”. For the same compound, the half-inhibitory concentration (IC50) in data set [5] came out at 52.5 µM; in data set [6], 11.5 µM; in data set [7] it was 45.7 µM; in data set [8], 11 µM.

For `O=C(c1c[nH]c2ccccc12)C(NCc1ccc2c(c1)OCO2)c1ccccc1` (stereo unspecified), the efflux ratio at 2 h, 75 µM in data set [1] is 1.02. For the same compound, the Papp A→B at 2 h, 75 µM in data set [2] worked out at 90 ×10⁻⁶ cm/s. Besides, the Papp B→A at 2 h, 75 µM in data set [3] is 92 ×10⁻⁶ cm/s. In addition, in data set [4], the inhibition result was “Dose-dependent effect”. For the same compound, the IC50 in data set [5] stood at 32.4 µM; in data set [6], 17.4 µM; in data set [7], 22.4 µM; in data set [8], 26 µM.

Consider `Cn1cc(SCC(=O)N2N=C(c3cccs3)CC2c2ccc(F)cc2)c2ccccc21` (stereo unspecified), for which, in data set [1], the efflux ratio at 2 h, 75 µM came out at 1.2. For the same compound, the apparent permeability from apical to basolateral (Papp A→B) at 2 h, 75 µM in data set [2] worked out at 39 ×10⁻⁶ cm/s. In data set [3], the Papp B→A at 2 h, 75 µM worked out at 47 ×10⁻⁶ cm/s. Further, the inhibition entry in data set [4] is “Dose-dependent effect”. The IC50 is > 100 µM in data set [5], 11.7 µM in data set [6], 44 µM in data set [7] and 37.1 µM in data set [8].

With `COc1ccc(-c2cc(C(F)F)n3ncc(C(=O)Nc4cc(Cl)ccc4O)c3n2)cc1`, the efflux ratio at 2 h, 75 µM in data set [1] was 1.16. The Papp A→B at 2 h, 75 µM in data set [2] worked out at 18 ×10⁻⁶ cm/s. In addition, in data set [3], the Papp B→A at 2 h, 75 µM was determined as 21 ×10⁻⁶ cm/s. Besides, the inhibition result in data set [4] was “Dose-dependent effect”. Also, the half-maximal inhibitory concentration (IC50) was > 100 µM in data set [5], 40 µM in data set [6], 74 µM in data set [7] and 2.2 µM in data set [8].

On to `CCCCN1C(=O)c2[nH]nc(-c3ccccc3O)c2C1c1ccc(OCC)cc1` (stereo unspecified), for which the efflux ratio at 2 h, 75 µM in data set [1] stood at 0.87. The Papp A→B at 2 h, 75 µM in data set [2] worked out at 63 ×10⁻⁶ cm/s. For the same compound, the Papp B→A at 2 h, 75 µM in data set [3] is 55 ×10⁻⁶ cm/s. In addition, the inhibition result in data set [4] was “Dose-dependent effect”. Further, the IC50 is 18.3 µM in data set [5], 22.5 µM in data set [6], 21 µM in data set [7] and 5.2 µM in data set [8].

For `Cc1cccc(-c2nnc(SCC(=O)c3ccc(O)cc3O)n2-c2ccccc2)c1`, the efflux ratio at 2 h, 75 µM in data set [1] was 0.59. In data set [2], the apparent permeability from apical to basolateral (Papp A→B) at 2 h, 75 µM stood at 22 ×10⁻⁶ cm/s. In addition, the Papp B→A at 2 h, 75 µM in data set [3] stood at 13 ×10⁻⁶ cm/s. In addition, in data set [4], the inhibition result is “Dose-dependent effect”. Besides, the IC50 in data set [5] is 33.1 µM; in data set [6] it was 12.7 µM; in data set [7], 16 µM; in data set [8] it was 67.2 µM.
